According to article PMC9530881 (Cancer Science, 2022):

Experiments:
[1] = tested on: MSTN; format: cell-based; details: HepG2, (SBE)4-luc; MSTN 10 ng/ml, 8 h; MID-35 3 μM or SB-431542 10 μM, 1 h pretreatment; n = 3
[2] = tested on: TGF‐β; format: cell-based; details: HepG2, (SBE)4-luc; TGF-β 5 ng/ml, 8 h; MID-35 3 μM or SB-431542 10 μM, 1 h pretreatment; n = 3
[3] = tested on: GDF‐11; format: cell-based; details: HepG2, (SBE)4-luc; GDF-11 10 ng/ml, 8 h; MID-35 3 μM or SB-431542 10 μM, 1 h pretreatment; n = 3
[4] = tested on: MSTN; assay: Smad2/3 nuclear localization induced by MSTN in C2C12 cells; format: cell-based; details: MID-35 3 μM or SB-431542 10 μM preincubated 1 h with MSTN 10 ng/ml
[5] = tested on: ALK4; details: ref [26]; cited from earlier work
[6] = tested on: ALK7; details: ref [26]; cited from earlier work
[7] = tested on: ALK5; details: ref [26]; cited from earlier work
[8] = tested on: cancer cachexia model mice (LLC cells); assay: LLC cancer cachexia model mice, MID-35 and/or anamorelin; format: in vivo, C57BL/6J mice; details: MID-35 i.m. and/or anamorelin p.o.; 22 days after LLC transplantation; Figure 6B
[9] = men who received 100 mg in a clinical trial; ref not given; cited from earlier work
[10] = tested on: cancer cachexia patients; details: cited from earlier work
[11] = tested on: ghrelin receptor; details: ref [8]; cited from earlier work
[12] = tested on: vascular function; details: via binding to BMP9 and BMP10; ref [36]; cited from earlier work
[13] = patients with non-small-cell lung cancer, ref [9], [10], [11]

Molecule: NC(=O)c1ccc(-c2nc(-c3ccc4c(c3)OCO4)c(-c3ccccn3)[nH]2)cc1 [SB‐431542]
- inhibition of MSTN-induced transcriptional activity [1]: suppressed
- inhibition of TGF-β-induced reporter activity [2]: suppressed
- inhibition of GDF-11-induced reporter activity [3]: suppressed
- Smad2 nuclear accumulation [4]: completely blocked
- ALK4 kinase inhibition [5]: known kinase inhibitor
- ALK7 kinase inhibition [6]: known kinase inhibitor
- ALK5 kinase inhibition [7]: known kinase inhibitor

Molecule: CN(C)N(C)C(=O)[C@@]1(Cc2ccccc2)CCCN(C(=O)[C@@H](Cc2c[nH]c3ccccc23)NC(=O)C(C)(C)N)C1 [anamorelin]
- gastrocnemius weight per body weight without tumor [8]: increased
- plasma Cmax average [9]: 707 ± 307 ng/mL
- lean body mass ([10]; clinical trial, cancer cachexia patients, ref not given): increased lean body mass
- appetite ([10]; patients with cancer cachexia, oral, ref [8]): augments appetite
- QOL [10, 13]: improvement of QOL
- weight gain [10, 13]: contribute to weight gain
- ghrelin receptor activity [11]: ghrelin receptor agonist

B1: ActRIIB: activin receptor type IIB; binds to both BMP9 and BMP10 (protein, UniProt Q13705 19-512, looked up)
Activin receptor type-2B: SGRGEAETRECIYYNANWELERTNQSGLERCEGEQDKRLHCYASWRNSSGTIELVKKGCWLDDFNCYDRQECVATEENPQVYFCCCEGNFCNERFTHLPEAGGPEVTYEPPPTAPTLLTVLAYSLLPIGGLSLIVLLAFWMYRHRKPPYGHVDIHEDPGPPPPSPLVGLKPLQLLEIKARGRFGCVWKAQLMNDFVAVKIFPLQDKQSWQSEREIFSTPGMKHENLLQFIAAEKRGSNLEVELWLITAFHDKGSLTDYLKGNIITWNELCHVAETMSRGLSYLHEDVPWCRGEGHKPSIAHRDFKSKNVLLKSDLTAVLADFGLAVRFEPGKPPGDTHGQVGTRRYMAPEVLEGAINFQRDAFLRIDMYAMGLVLWELVSRCKAADGPVDEYMLPFEEEIGQHPSLEELQEVVVHKKMRPTIKDHWLKHPGLAQLCVTIEECWDHDAEARLSAGCVEERVSLIRRSVNGTTSDCLVSLVTSVTNVDLPPKESSI
- vascular side-effects [12]: vascular side‐effects
